In ChEMBL document CHEMBL1641441, “A novel screening model for the molecular drug for diabetes and obesity based on tyrosine phosphatase Shp2” (Bioorg Med Chem Lett, 2011):
Active and inactive are the calls of the source.

Columns and labels:
[1] = target: Tyrosine-protein phosphatase non-receptor type 6 (Homo sapiens) (UniProt P29350); test: Increase of GST-tagged full length Shp1 activity expressed in Escherichia coli BL21 at 10 uM after 30 mins
[2] = target: T1, Tyrosine-protein phosphatase non-receptor type 7 (Homo sapiens) (UniProt P35236); test: Increase of GST-tagged full length HePTP activity expressed in Escherichia coli BL21 at 10 uM after 30 mins
T1 sequence (whole entry): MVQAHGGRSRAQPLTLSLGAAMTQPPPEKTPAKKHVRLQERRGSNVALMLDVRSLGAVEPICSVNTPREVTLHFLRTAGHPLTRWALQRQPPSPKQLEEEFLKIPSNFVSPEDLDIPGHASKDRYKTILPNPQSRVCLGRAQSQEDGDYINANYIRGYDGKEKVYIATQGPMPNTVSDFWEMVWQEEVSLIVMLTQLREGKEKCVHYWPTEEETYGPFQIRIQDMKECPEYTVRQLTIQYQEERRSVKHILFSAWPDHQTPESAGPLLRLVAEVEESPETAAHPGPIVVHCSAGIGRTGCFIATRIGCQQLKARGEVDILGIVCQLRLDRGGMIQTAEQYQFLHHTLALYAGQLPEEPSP

[3] = target: Dual specificity protein phosphatase 3 (Homo sapiens) (UniProt P51452); test: Increase of GST-tagged full length Vhr activity expressed in Escherichia coli BL21 at 10 uM after 30 mins

Measured: Activity

Chain of Dual specificity protein phosphatase 3 (Homo sapiens) (P51452 whole entry, looked up): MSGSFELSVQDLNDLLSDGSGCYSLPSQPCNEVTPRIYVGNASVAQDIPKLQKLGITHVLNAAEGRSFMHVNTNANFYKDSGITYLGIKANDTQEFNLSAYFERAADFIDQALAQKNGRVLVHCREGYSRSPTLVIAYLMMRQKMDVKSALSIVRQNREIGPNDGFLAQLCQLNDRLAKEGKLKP
Chain of Tyrosine-protein phosphatase non-receptor type 6 (Homo sapiens) (P29350 whole entry): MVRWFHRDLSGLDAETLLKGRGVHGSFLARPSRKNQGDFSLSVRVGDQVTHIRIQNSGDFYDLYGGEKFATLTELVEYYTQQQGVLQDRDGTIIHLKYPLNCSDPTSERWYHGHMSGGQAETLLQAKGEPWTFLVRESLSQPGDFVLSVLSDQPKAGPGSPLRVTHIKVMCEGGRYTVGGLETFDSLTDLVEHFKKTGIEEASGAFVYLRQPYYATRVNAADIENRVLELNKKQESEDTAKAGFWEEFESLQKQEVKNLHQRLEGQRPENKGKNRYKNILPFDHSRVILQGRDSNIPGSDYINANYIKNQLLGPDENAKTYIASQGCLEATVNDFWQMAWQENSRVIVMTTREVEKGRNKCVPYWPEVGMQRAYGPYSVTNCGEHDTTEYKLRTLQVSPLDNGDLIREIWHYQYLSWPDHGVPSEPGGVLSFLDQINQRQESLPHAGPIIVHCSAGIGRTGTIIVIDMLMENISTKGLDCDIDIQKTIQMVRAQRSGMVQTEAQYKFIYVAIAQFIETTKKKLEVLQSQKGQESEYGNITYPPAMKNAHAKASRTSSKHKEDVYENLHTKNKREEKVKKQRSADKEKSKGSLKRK

CC1(C)CC[C@]2(C(=O)O)CC[C@]3(C)C(=CC[C@@H]4[C@@]5(C)CC[C@H](O)C(C)(C)[C@@H]5CC[C@]43C)[C@@H]2C1
inactive: all assays above
